{"source": "patent US10501498B2", "about": "(BGI SHENZHEN, priority 2014, dated 2019)", "test_system": "HVA calcium channel", "assay_type": "cell-based, rat", "data": [{"smiles": "COC(=O)C1=C(C)NC(C)=C(C(=O)OC)C1c1ccccc1[N+](=O)[O-]", "note": "[Nifedipine, reference compound]", "values": [{"measurement": "current after loading", "value": "−734.31", "unit": "pA"}, {"measurement": "inhibition rate", "setting": "10 µM", "value": 50.09, "unit": "%"}]}]}
